From patent US20240358693A1, “METHODS OF TREATING PAIN” (Aisa Pharma, Inc., priority 2023, published 2024)

Tested on: participants with SSc-RP
Assay: Scleroderma Health Assessment Questionnaire (SHAQ): disability indices and visual analog scales
Type: in vivo, human
Conditions: Day 12
Source text: The standard, validated, patient reported outcome measures tool for SSc patients, the Scleroderma Health Assessment Questionnaire (SHAQ), will be used to assess the participant qualify of life. Details are attached in the Appendix. The participant quality of life will be scored, and a disability index calculated for each questionnaire completed by the patient at Screening and each in-clinic visit. The absolute change in participant quality of life from baseline to the end of each dosing period will be calculated similar to frequency data as before.
The SHAQ includes a Raynaud's VAS, which will be reported at screening and each in-clinic visit. The absolute change in Raynaud-VAS, assessed by the participants response to the SHAQ question ‘In the past 7 days, how much have your Raynaud's interfered with your daily activities?’ at baseline and the end of each dosing period will be calculated similar to frequency data as before.
The SHAQ is used to calculate a Disability Index to assess the participant qualify of life. The eight categories assessed by the Disability Index are 1) dressing and grooming, 2) arising, 3) eating, 4) walking, 5) hygiene, 6) reach, 7) grip, and 8) common daily activities. For each of these categories, patients report the amount of difficulty they have in performing two or three specific activities.
There are four possible responses for the Disability Index questions: • Without any difficulty=0 • With some difficulty=1 • With much difficulty=2 • Unable to do=3. • The highest score reported by the patient for any component question of the eight categories determines the score for that category. • If a component question is left blank or the response is too ambiguous to assign a score, then the score for that category is determined by the remaining completed question(s). • If all component questions are blank or if more than one answer is given, then follow up with the respondent is required. • If the respondent's mark is between the response columns, then move it to the closest one. If it's directly between the two, move it to the higher one.
Each of the disability items on the SHAQ has a companion aids/devices variable that is used to record what type(s) of assistance, if any, the participant uses for his/her usual activities. These variables (see below) are coded as follows: • 0=No assistance is needed. • 1=A special device is used by the patient in his/her usual activities. • 2=The patient usually needs help from another person. • 3=The patient usually needs BOTH a special device AND help from another person.
The scoring variables and scoring rules permit the computation of two disability indices, the Standard Disability Index and the Alternative Disability Index.
This question results in a new set of category scores that are computed by adjusting the score for each category, if necessary, based on the patient's use of an aid or device or assistance for that category. If either devices and/or help from another person are checked for a category, the score is set to “2”, unless the score is already “3” (i.e., scores of “0” or “1” are increased to “2”). For example, if the highest score for the dressing category is “1”, and the patient says they use a device for dressing, the computed category score would be “2”. The sum of the computed categories scores is then calculated and divided by the number of categories answered. This gives a score in the 0 to 3 range.
The aid and device variables are not used to calculate the alternative disability index; it is calculated by adding the scores for each of the categories and dividing by the number of categories answered. This gives a score in the 0 to 3 range.
The standard, validated, patient reported outcome measures tool for SSc patients, the SHAQ, was collected at the time points specified in the study schedules (FIG. 2 and FIGS. 4A and 4B) to assess the participant's quality of life. The SHAQ included a Raynaud's VAS that will also be reported separately.

[1] = Modified ITT, Part A, dose Cilnidipine 20 mg, or 20 mg + Tadalafil 5 mg
[2] = Pooled Cilnidipine 10 mg and Cilnidipine 10 mg + Tadalafil 5 mg (N = 9), PP Population Part A
[3] = Pooled Cilnidipine 10 mg and Cilnidipine 10 mg + Tadalafil 5 mg (N = 9), PP Population Part A, Subject 01-110 score excluded
[4] = Pooled Cilnidipine 20 mg and Cilnidipine 20 mg + Tadalafil 5 mg (N = 8), PP Population Part A

COCCOC(=O)C1=C(C)NC(C)=C(C(=O)OC/C=C/c2ccccc2)C1c1cccc([N+](=O)[O-])c1 (centres unmarked) [Cilnidipine, cilnidipine]
SHAQ Finger Ulcers, Percent Change from Baseline, Median [1]: 35.29%
SHAQ Standard Disability Index, Change from Baseline, Mean [1]: −0.125
SHAQ Standard Disability Index, Change from Baseline, Median [1]: −0.125
SHAQ Standard Disability Index, Percent Change from Baseline, Mean [1]: −50.00%
SHAQ Standard Disability Index, Percent Change from Baseline, Median [1]: −50.00%
SHAQ Visual Analog Scale-Breathing Problems, Change from Baseline, Mean [1]: −0.833
SHAQ Visual Analog Scale-Breathing Problems, Change from Baseline, Median [1]: −0.800
SHAQ Visual Analog Scale-Breathing Problems, Percent Change from Baseline, Mean [1]: −5.56%
SHAQ Visual Analog Scale-Breathing Problems, Percent Change from Baseline, Median [1]: −66.67%
SHAQ Visual Analog Scale-Intestinal Problems, Change from Baseline, Mean [1]: 0.300
SHAQ Visual Analog Scale-Intestinal Problems, Change from Baseline, Median [1]: 0.300
SHAQ Visual Analog Scale-Intestinal Problems, Percent Change from Baseline, Mean [1]: 35.00%
SHAQ Visual Analog Scale-Intestinal Problems, Percent Change from Baseline, Median [1]: 35.00%
SHAQ Visual Analog Scale-Pain, Change from Baseline, Mean [1]: −1.100
SHAQ Visual Analog Scale-Pain, Change from Baseline, Median [1]: −0.800
SHAQ Visual Analog Scale-Pain, Percent Change from Baseline, Mean [1]: −52.56%
SHAQ Visual Analog Scale-Pain, Percent Change from Baseline, Median [1]: −53.33%
SHAQ Visual Analog Scale-Raynaud's, Change from Baseline, Mean [1]: −1.267
SHAQ Visual Analog Scale-Raynaud's, Change from Baseline, Median [1]: −1.100
SHAQ Visual Analog Scale-Raynaud's, Percent Change from Baseline, Mean [1]: −48.63%
SHAQ Visual Analog Scale-Raynaud's, Percent Change from Baseline, Median [1]: −44.00%
SHAQ Visual Analogue Scale - Finger Ulcers, Change from Baseline, Mean [2]: −0.267
SHAQ Visual Analogue Scale - Finger Ulcers, Change from Baseline, Median [2]: −0.100
SHAQ Visual Analogue Scale - Finger Ulcers, Percent Change from Baseline, Mean [2]: −46.06%
SHAQ Visual Analogue Scale - Finger Ulcers, Percent Change from Baseline, Median [2]: −31.94%
SHAQ Visual Analogue Scale - Intestinal Problems, Change from Baseline, Mean [2]: −1.228
SHAQ Visual Analogue Scale - Intestinal Problems, Change from Baseline, Median [2]: −0.250
SHAQ Visual Analogue Scale - Intestinal Problems, Percent Change from Baseline, Mean [2]: −27.93%
SHAQ Visual Analogue Scale - Intestinal Problems, Percent Change from Baseline, Median [2]: −54.13%
SHAQ Visual Analogue Scale - Overall Disease Severity, Change from Baseline, Mean [2]: −0.606
SHAQ Visual Analogue Scale - Overall Disease Severity, Change from Baseline, Median [2]: −0.700
SHAQ Visual Analogue Scale - Overall Disease Severity, Percent Change from Baseline, Mean [2]: −24.68%
SHAQ Visual Analogue Scale - Overall Disease Severity, Percent Change from Baseline, Median [2]: −30.93%
SHAQ Visual Analogue Scale - Pain, Change from Baseline, Mean [2]: −0.633
SHAQ Visual Analogue Scale - Pain, Change from Baseline, Median [2]: −0.700
SHAQ Visual Analogue Scale - Pain, Percent Change from Baseline, Mean [2]: −20.07%
SHAQ Visual Analogue Scale - Pain, Percent Change from Baseline, Median [2]: −21.87%
SHAQ Visual Analogue Scale - Raynaud's, Change from Baseline, Mean [2]: −0.414
SHAQ Visual Analogue Scale - Raynaud's, Change from Baseline, Median [2]: −0.100
SHAQ Visual Analogue Scale - Raynaud's, Percent Change from Baseline, Mean [2]: −9.97%
SHAQ Visual Analogue Scale - Raynaud's, Percent Change from Baseline, Median [2]: −4.39%
SHAQ Visual Analogue Scale - Breathing Problems, Change from Baseline, Mean [3]: −0.175
SHAQ Visual Analogue Scale - Breathing Problems, Change from Baseline, Median [3]: 0.000
SHAQ Visual Analogue Scale - Breathing Problems, Percent Change from Baseline, Mean [3]: −26.05%
SHAQ Visual Analogue Scale - Breathing Problems, Percent Change from Baseline, Median [3]: −21.33%
SHAQ Visual Analogue Scale - Breathing Problems, Change from Baseline, Mean [4]: 0.225
SHAQ Visual Analogue Scale - Breathing Problems, Change from Baseline, Median [4]: 0.150
SHAQ Visual Analogue Scale - Breathing Problems, Percent Change from Baseline, Mean [4]: 93.65%
SHAQ Visual Analogue Scale - Breathing Problems, Percent Change from Baseline, Median [4]: 31.58%
SHAQ Visual Analogue Scale - Finger Ulcers, Change from Baseline, Mean [4]: −0.950
SHAQ Visual Analogue Scale - Finger Ulcers, Change from Baseline, Median [4]: −0.050
SHAQ Visual Analogue Scale - Finger Ulcers, Percent Change from Baseline, Mean [4]: −15.69%
SHAQ Visual Analogue Scale - Finger Ulcers, Percent Change from Baseline, Median [4]: −48.04%
SHAQ Visual Analogue Scale - Intestinal Problems, Change from Baseline, Mean [4]: 0.200
SHAQ Visual Analogue Scale - Intestinal Problems, Change from Baseline, Median [4]: 0.000
SHAQ Visual Analogue Scale - Intestinal Problems, Percent Change from Baseline, Mean [4]: −6.27%
SHAQ Visual Analogue Scale - Intestinal Problems, Percent Change from Baseline, Median [4]: −29.44%
SHAQ Visual Analogue Scale - Overall Disease Severity, Change from Baseline, Mean [4]: −1.425
SHAQ Visual Analogue Scale - Overall Disease Severity, Change from Baseline, Median [4]: −1.550
SHAQ Visual Analogue Scale - Overall Disease Severity, Percent Change from Baseline, Mean [4]: −47.98%
SHAQ Visual Analogue Scale - Overall Disease Severity, Percent Change from Baseline, Median [4]: −48.23%
SHAQ Visual Analogue Scale - Pain, Change from Baseline, Mean [4]: −0.500
